{
  "source": "ChEMBL document CHEMBL4609985",
  "about": "“Superior inhibition of influenza virus hemagglutinin-mediated fusion by indole-substituted spirothiazolidinones” (Bioorg Med Chem, 2020)",
  "key": {"[1]": {"assay": "Inhibition of Influenza A virus H3N2 A/X-31 hemagglutinin 3 E572K mutant expressed in HeLa cells assessed as polykaryon formation preincubated for 15 mins and further incubated for 15 mins with acidic buffer containing compounds at pH 5.2 by giemsa staining based microscopic analysis", "type": "cell-based, Influenza A virus (A/X-31(H3N2))"}, "[2]": {"assay": "Inhibition of Influenza A virus H3N2 A/X-31 hemagglutinin 3 D1122N expressed in HeLa cells assessed as polykaryon formation preincubated for 15 mins and further incubated for 15 mins with acidic buffer containing compounds at pH 5.6 by giemsa staining based microscopic analysis", "type": "cell-based, Influenza A virus (A/X-31(H3N2))"}},
  "data": [
    {"smiles": "Cc1c(C(=O)NN2C(=O)C(C)SC23CCCC(C)C3)[nH]c2ccc(Cl)cc12", "note": "(centres undefined)", "values": [
      {"measurement": "EC50", "setting": "[1]", "value": "> 25", "unit": "µM"},
      {"measurement": "EC50", "setting": "[2]", "value": "> 25", "unit": "µM"}
    ]},
    {"smiles": "CCC1CCC2(CC1)SC(C)C(=O)N2NC(=O)c1[nH]c2ccc(Cl)cc2c1C", "note": "(centres undefined)", "values": [
      {"measurement": "EC50", "setting": "[1]", "value": "> 25", "unit": "µM"},
      {"measurement": "EC50", "setting": "[2]", "value": "≥ 21", "unit": "µM"}
    ]},
    {"smiles": "CC(C)(C)c1cc(O)ccc1O", "note": "[E319]", "values": [
      {"measurement": "EC50", "setting": "[1]", "value": 12, "unit": "µM"},
      {"measurement": "EC50", "setting": "[2]", "value": "> 400", "unit": "µM"}
    ]},
    {"smiles": "Cc1nc2sccn2c1C(=O)NN1C(=O)C(C)SC12CCC(C)CC2", "note": "(centres undefined)", "values": [
      {"measurement": "EC50", "setting": "[1]", "value": 9, "unit": "µM"},
      {"measurement": "EC50", "setting": "[2]", "value": "> 25", "unit": "µM"}
    ]},
    {"smiles": "CCOC(=O)c1c(CSc2ccccc2)n(C)c2cc(Br)c(O)c(CN(C)C)c12", "note": "[UMIFENOVIR]", "values": [
      {"measurement": "EC50", "setting": "[1]", "value": "> 200", "unit": "µM"},
      {"measurement": "EC50", "setting": "[2]", "value": "> 200", "unit": "µM"}
    ]},
    {"smiles": "Cc1c(C(=O)NN2C(=O)C(C)SC23CCC(C)CC3)[nH]c2ccc(Cl)cc12", "note": "(centres undefined)", "values": [
      {"measurement": "EC50", "setting": "[1]", "value": "≥ 13", "unit": "µM"},
      {"measurement": "EC50", "setting": "[2]", "value": "> 25", "unit": "µM"}
    ]},
    {"smiles": "Cc1c(C(=O)NN2C(=O)C(C)SC23CCCCC3)[nH]c2ccc(Cl)cc12", "note": "(centres undefined)", "values": [
      {"measurement": "EC50", "setting": "[1]", "value": "> 25", "unit": "µM"},
      {"measurement": "EC50", "setting": "[2]", "value": "> 25", "unit": "µM"}
    ]}
  ]
}
